Test in all cases: biochemical
Format in all cases: biochemical

Assay [1] deals with T1, 382 unique human kinases (Homo sapiens, UniProt O14733).
T1 construct: purchased Reaction Biology (HotSpot contract assay)
T1 sequence (O14733 1-419): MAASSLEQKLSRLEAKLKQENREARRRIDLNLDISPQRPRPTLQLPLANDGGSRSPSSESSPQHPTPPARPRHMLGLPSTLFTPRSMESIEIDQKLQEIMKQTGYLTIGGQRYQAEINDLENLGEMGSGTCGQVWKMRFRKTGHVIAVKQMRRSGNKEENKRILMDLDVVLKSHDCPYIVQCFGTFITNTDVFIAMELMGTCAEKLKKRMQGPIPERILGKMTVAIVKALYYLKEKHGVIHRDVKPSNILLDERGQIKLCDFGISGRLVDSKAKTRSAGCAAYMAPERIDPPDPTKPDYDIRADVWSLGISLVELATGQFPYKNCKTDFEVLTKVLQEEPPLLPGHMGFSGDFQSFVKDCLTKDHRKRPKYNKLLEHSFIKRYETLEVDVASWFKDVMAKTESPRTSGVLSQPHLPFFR
To be noted: kinase MKK7, compound 10 uM; for remaining activity at 10 µM: read-out: % Enzyme Activity (relative to DMSO controls).

The target of assay [2] is T2, 382 unique human kinases (Homo sapiens, UniProt Q8IWQ3).
T2 construct: purchased Reaction Biology (HotSpot contract assay)
T2 sequence (Q8IWQ3 1-736): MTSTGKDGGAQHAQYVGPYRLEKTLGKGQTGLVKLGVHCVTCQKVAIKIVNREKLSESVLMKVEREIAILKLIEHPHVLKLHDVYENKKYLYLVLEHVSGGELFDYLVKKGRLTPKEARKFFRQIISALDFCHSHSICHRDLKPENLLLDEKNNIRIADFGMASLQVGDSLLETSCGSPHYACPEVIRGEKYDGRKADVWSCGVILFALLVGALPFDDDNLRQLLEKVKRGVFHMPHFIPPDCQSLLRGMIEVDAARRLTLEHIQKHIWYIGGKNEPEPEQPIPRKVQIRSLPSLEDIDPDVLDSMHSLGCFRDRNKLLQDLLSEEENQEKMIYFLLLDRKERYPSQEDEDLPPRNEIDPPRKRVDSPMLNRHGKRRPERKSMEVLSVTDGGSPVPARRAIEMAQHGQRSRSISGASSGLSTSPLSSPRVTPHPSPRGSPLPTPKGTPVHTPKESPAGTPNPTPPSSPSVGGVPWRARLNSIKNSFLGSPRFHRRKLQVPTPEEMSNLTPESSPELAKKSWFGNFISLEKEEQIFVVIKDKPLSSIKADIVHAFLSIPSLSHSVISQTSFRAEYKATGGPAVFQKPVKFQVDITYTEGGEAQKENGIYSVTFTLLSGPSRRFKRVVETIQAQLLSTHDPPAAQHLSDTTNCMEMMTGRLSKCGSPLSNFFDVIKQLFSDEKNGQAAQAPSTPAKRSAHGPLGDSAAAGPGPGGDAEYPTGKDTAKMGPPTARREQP
To be noted: kinase BRSK2, compound 10 uM; for remaining activity at 10 µM: read-out: % Enzyme Activity (relative to DMSO controls).

Assay [3] addresses T3, 382 unique human kinases (Homo sapiens, UniProt Q8NE63).
T3 construct: purchased Reaction Biology (HotSpot contract assay)
T3 sequence (Q8NE63 1-616): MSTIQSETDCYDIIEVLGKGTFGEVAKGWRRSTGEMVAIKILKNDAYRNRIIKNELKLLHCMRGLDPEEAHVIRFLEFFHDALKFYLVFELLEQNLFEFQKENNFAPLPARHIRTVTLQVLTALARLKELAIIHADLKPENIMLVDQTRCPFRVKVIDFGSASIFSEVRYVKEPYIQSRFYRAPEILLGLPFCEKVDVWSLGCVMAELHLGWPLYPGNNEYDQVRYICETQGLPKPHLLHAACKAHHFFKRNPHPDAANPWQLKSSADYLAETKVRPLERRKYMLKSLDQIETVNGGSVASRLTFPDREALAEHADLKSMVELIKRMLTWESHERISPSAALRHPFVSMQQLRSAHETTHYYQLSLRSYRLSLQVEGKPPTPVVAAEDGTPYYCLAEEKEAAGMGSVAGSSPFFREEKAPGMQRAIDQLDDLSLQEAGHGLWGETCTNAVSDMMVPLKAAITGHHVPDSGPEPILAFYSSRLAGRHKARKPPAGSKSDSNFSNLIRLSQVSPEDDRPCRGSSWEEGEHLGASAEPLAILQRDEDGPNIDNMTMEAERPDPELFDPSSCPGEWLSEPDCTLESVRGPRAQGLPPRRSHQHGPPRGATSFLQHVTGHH
The following applies: HIPK4, 10 uM; for remaining activity at 10 µM: read-out: % Enzyme Activity (relative to DMSO controls).

Assay [4] has as its target T4, 382 unique human kinases (Homo sapiens, UniProt O94806).
T4 construct: purchased Reaction Biology (HotSpot contract assay)
T4 sequence (O94806 1-890): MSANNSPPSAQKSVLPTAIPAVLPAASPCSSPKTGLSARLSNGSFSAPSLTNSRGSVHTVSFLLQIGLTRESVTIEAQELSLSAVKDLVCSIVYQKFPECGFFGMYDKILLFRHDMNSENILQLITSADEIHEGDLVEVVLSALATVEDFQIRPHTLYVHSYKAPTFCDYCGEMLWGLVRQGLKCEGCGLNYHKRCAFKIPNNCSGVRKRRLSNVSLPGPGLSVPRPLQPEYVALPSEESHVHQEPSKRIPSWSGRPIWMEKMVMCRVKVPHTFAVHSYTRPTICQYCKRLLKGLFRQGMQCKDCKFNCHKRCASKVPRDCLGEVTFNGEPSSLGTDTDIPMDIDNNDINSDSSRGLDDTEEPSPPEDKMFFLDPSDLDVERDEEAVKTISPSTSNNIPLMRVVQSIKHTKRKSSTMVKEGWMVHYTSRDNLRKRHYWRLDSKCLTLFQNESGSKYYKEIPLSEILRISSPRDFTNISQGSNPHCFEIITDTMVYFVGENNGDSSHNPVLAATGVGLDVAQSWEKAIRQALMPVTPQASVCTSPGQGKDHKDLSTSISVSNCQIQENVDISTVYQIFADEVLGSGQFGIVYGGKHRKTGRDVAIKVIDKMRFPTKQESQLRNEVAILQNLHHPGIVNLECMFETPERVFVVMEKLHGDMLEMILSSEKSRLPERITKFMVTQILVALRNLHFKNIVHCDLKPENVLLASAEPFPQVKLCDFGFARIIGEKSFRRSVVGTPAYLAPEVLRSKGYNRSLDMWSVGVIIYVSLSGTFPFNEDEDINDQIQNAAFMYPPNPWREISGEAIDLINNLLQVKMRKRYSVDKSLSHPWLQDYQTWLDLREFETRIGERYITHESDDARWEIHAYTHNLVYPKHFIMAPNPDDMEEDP
To be noted: PKCnu/PRKD3, [ATP] 30 µM, compound 10 uM; for remaining activity at 10 µM: read-out: % Enzyme Activity (relative to DMSO controls).

Assay [5] concerns the target T5, 382 unique human kinases (Homo sapiens, UniProt P07949, M918T).
T5 construct: purchased Reaction Biology (HotSpot contract assay)
To be noted: RET (M918T), 10 uM; for remaining activity at 10 µM: read-out: % Enzyme Activity (relative to DMSO controls).

For assay [6], the target named is T6, 382 unique human kinases (Homo sapiens, UniProt Q07912).
T6 construct: purchased Reaction Biology (HotSpot contract assay)
T6 sequence (Q07912 whole entry): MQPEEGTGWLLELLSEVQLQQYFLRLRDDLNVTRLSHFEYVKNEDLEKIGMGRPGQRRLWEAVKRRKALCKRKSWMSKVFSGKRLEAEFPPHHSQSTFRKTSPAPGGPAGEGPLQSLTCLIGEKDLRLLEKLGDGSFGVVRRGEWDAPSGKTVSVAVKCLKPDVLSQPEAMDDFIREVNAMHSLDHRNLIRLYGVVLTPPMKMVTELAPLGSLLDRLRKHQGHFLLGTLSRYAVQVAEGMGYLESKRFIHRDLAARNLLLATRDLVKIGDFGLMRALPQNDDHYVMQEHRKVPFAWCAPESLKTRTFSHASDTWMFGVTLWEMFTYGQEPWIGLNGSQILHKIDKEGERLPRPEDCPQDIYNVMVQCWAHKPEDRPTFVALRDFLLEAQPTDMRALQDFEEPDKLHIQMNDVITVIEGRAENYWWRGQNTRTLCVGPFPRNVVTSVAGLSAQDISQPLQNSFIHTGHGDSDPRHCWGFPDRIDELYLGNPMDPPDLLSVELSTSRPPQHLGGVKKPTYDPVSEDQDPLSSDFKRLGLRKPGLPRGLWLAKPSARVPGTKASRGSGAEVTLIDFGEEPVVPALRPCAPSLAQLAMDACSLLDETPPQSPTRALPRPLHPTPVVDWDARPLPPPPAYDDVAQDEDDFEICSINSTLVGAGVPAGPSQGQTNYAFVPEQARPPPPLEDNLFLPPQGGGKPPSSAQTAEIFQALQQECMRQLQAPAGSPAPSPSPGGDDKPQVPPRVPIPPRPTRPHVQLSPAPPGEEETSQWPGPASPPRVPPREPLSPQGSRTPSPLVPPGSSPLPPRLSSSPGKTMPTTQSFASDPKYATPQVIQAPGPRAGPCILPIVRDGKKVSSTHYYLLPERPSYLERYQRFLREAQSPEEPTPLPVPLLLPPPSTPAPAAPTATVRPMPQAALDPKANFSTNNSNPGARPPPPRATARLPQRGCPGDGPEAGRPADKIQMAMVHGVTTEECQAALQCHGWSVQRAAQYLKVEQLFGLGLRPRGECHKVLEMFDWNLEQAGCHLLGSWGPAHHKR
To be noted: ACK1, [ATP] 100 µM, compound 10 uM; for remaining activity at 10 µM: read-out: % Enzyme Activity (relative to DMSO controls).

The structures appear in SMILES notation.

The text below walks through data of article PMC8550792, “Evolution of kinase polypharmacology across HSP90 drug discovery” (Cell Chemical Biology, 2021).

T5 sequence (P07949 29-1114 M918T): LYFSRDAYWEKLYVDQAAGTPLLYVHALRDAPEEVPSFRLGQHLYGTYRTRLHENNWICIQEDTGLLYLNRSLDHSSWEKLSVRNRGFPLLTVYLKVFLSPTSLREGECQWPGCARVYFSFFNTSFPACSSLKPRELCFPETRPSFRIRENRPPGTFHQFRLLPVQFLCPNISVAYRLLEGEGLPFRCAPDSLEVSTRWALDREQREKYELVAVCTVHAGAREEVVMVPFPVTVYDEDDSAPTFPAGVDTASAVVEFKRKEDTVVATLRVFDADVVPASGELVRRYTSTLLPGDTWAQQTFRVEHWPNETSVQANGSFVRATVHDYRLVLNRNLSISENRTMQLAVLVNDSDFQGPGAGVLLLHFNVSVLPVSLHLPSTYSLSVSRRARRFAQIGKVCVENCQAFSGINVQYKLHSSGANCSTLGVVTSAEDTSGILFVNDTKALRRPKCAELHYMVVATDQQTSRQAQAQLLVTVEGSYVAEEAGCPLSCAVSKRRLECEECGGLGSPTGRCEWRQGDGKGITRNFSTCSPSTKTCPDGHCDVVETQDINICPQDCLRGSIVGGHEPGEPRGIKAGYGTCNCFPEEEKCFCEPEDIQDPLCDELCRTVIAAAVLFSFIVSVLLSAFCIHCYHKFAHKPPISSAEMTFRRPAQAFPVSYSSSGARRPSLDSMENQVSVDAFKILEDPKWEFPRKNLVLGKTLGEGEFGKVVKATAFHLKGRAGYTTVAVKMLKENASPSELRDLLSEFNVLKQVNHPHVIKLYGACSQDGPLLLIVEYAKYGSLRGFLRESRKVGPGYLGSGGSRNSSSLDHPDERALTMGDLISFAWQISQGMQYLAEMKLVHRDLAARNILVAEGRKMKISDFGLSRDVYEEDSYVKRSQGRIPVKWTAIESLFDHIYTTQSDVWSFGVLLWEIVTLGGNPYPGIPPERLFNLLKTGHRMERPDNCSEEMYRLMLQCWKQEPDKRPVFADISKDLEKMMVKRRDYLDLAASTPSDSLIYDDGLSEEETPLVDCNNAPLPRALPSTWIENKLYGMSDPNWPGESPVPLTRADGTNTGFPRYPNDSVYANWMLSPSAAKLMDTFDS

For the compound `CC(C)c1cc(-c2n[nH]c(=O)n2-c2ccc3c(ccn3C)c2)c(O)cc1O` [Ganetespib (STA9090)], the figures for the remaining activity at 10 µM at 382 unique human kinases [1], at 382 unique human kinases [2] and at 382 unique human kinases [3] were 80.9%, 82.8% and 64.4%, respectively.
`CC(C)c1cc(-c2n[nH]c(=O)n2-c2ccc3c(ccn3C)c2)c(O)cc1O` [Ganetespib]: the remaining activity at 10 µM at 382 unique human kinases [4] came to 54.7%; on 382 unique human kinases [5], 97.7%; at 382 unique human kinases [6] it was 47%.
Take `CCNC(=O)c1noc(-c2cc(C(C)C)c(O)cc2O)c1-c1ccc(CN2CCOCC2)cc1` [Luminespib (AUY-922)]: the “% Enzyme Activity (relative to DMSO controls)” value worked out at 102.48% on 382 unique human kinases [1], 83.62% at 382 unique human kinases [2] and 88.32% at 382 unique human kinases [3]. Moreover, the remaining activity at 10 µM at 382 unique human kinases [1] came out at 105%; on 382 unique human kinases [2], 83.9%; at 382 unique human kinases [3] it was 88.8%.
As to `CCNC(=O)c1noc(-c2cc(C(C)C)c(O)cc2O)c1-c1ccc(CN2CCOCC2)cc1` [Luminespib], the “% Enzyme Activity (relative to DMSO controls)” value is given as 116.94% on 382 unique human kinases [4], 96.83% at 382 unique human kinases [5] and 88.83% on 382 unique human kinases [6]. Besides, the remaining activity at 10 µM came to 120% at 382 unique human kinases [4], 97.5% at 382 unique human kinases [5] and 89.5% on 382 unique human kinases [6].
